Like-named read-outs stand apart in the source and are kept apart here.
System: HIV-1
Experiment: Breakthrough of mutant HIV-1 strains in CEM cell cultures, single drugs and double/triple combinations
Type: cell-based
Settings: for activity at 0.04 µg/mL / activity at 0.1 µg/mL / activity at 0.25 µg/mL: Human immunodeficiency virus 1, CCRF-CEM, read-out: HIV-1-induced syncytium formation in CEM cells; for activity at 0.04 µg/mL: single drug 0.04 μg/ml; for activity at 0.1 µg/mL: single drug 0.10 μg/ml; for activity at 0.25 µg/mL: single drug 0.25 μg/ml
Experimental: The culture medium consisted of RPMI 1640 containing 10% fetal bovine serum, 2 mM L-glutamine, and 0.075% NaHCO3. The multiplicity of the initial infection was ~1000 times the CCID50 (50% cell culture infective dose). Passages were performed every 3 to 4 days by adding 0.5 to 1.0 ml of the infected culture supernatant to 5 ml of a suspension containing 4×10^5 uninfected CEM cells per ml. Syncytium formation was used as a parameter of virus breakthrough in the cell cultures. In the drug combination experiments, the compounds were combined at the same initial concentrations as used for the two lowest concentrations in the single-drug experiments.
Compound IV, BHAP and TSAO-m^3 T were added to HIV-1-infected CEM cell cultures at 0.04, 0.10 and 0.25 ug/ml (Compound IV and BHAP) or 1.0, 2.5 and 5.0 μg/ml (TSAO-m^3 T). In addition, various double- and triple-drug combinations of Compound IV, BHAP and TSAO-m^3 T were performed, combining these inhibitors at their lowest (0.04 μg/ml) or intermediary (0.1 μg/ml) concentration as used in the single-drug experiments.

For Cc1occc1C(=S)Nc1ccc(Cl)c(C(=O)OC2CCCC2)c1 [Compound IV], the activity at 0.04 µg/mL (96 h, day 4 post infection) was 0%, the activity at 0.1 µg/mL (96 h, day 4 post infection) was 0% and the activity at 0.25 µg/mL (96 h, day 4 post infection) was 0%. For the same compound, the activity at 0.04 µg/mL (168 h, day 7 post infection) was 0%, the activity at 0.1 µg/mL (168 h, day 7 post infection) was 0% and the activity at 0.25 µg/mL (168 h, day 7 post infection) was 0%. For the same compound, the activity at 0.04 µg/mL (264 h, day 11 post infection) was 6.25%, the activity at 0.1 µg/mL (264 h, day 11 post infection) was 0% and the activity at 0.25 µg/mL (264 h, day 11 post infection) was 0%. For the same compound, the activity at 0.04 µg/mL (336 h, day 14 post infection) was 12.5%, the activity at 0.1 µg/mL (336 h, day 14 post infection) was 6.25% and the activity at 0.25 µg/mL (336 h, day 14 post infection) was 0%. It also gave an activity at 0.04 µg/mL (432 h, day 18 post infection) of 100%, an activity at 0.1 µg/mL (432 h, day 18 post infection) of 6.25% and an activity at 0.25 µg/mL (432 h, day 18 post infection) of 0%. The activity at 0.04 µg/mL (504 h, day 21 post infection) was 100%, the activity at 0.1 µg/mL (504 h, day 21 post infection) was 87.5% and the activity at 0.25 µg/mL (504 h, day 21 post infection) was 3.12%. The activity at 0.04 µg/mL (600 h, day 25 post infection) was 100%, the activity at 0.1 µg/mL (600 h, day 25 post infection) was 87.5% and the activity at 0.25 µg/mL (600 h, day 25 post infection) was 19%. It also gave an activity at 0.04 µg/mL (672 h, day 28 post infection) of 100%, an activity at 0.1 µg/mL (672 h, day 28 post infection) of 100% and an activity at 0.25 µg/mL (672 h, day 28 post infection) of 75%. For the same compound, the activity at 0.04 µg/mL (768 h, day 32 post infection) was 100%, the activity at 0.1 µg/mL (768 h, day 32 post infection) was 100% and the activity at 0.25 µg/mL (768 h, day 32 post infection) was 100%. The activity at 0.04 µg/mL (840 h, day 35 post infection) was 100%, the activity at 0.1 µg/mL (840 h, day 35 post infection) was 100% and the activity at 0.25 µg/mL (840 h, day 35 post infection) was 100%. The activity at 0.04 µg/mL (936 h, day 39 post infection) was 100%, the activity at 0.1 µg/mL (936 h, day 39 post infection) was 100% and the activity at 0.25 µg/mL (936 h, day 39 post infection) was 100%. It also gave an activity at 0.04 µg/mL (1008 h, day 42 post infection) of 100%, an activity at 0.1 µg/mL (1008 h, day 42 post infection) of 100% and an activity at 0.25 µg/mL (1008 h, day 42 post infection) of 100%. It also gave an activity at 0.04 µg/mL (1104 h, day 46 post infection) of 100%, an activity at 0.1 µg/mL (1104 h, day 46 post infection) of 100% and an activity at 0.25 µg/mL (1104 h, day 46 post infection) of 100%. For the same compound, the activity at 0.04 µg/mL (1176 h, day 49 post infection) was 100%, the activity at 0.1 µg/mL (1176 h, day 49 post infection) was 100% and the activity at 0.25 µg/mL (1176 h, day 49 post infection) was 100%. For the same compound, the activity at 0.04 µg/mL (1272 h, day 53 post infection) was 100%, the activity at 0.1 µg/mL (1272 h, day 53 post infection) was 100% and the activity at 0.25 µg/mL (1272 h, day 53 post infection) was 100%. For the same compound, the activity at 0.04 µg/mL (1344 h, day 56 post infection) was 100%, the activity at 0.1 µg/mL (1344 h, day 56 post infection) was 100% and the activity at 0.25 µg/mL (1344 h, day 56 post infection) was 100%. The activity at 0.04 µg/mL (1440 h, day 60 post infection) was 100%, the activity at 0.1 µg/mL (1440 h, day 60 post infection) was 100% and the activity at 0.25 µg/mL (1440 h, day 60 post infection) was 100%. It also gave an activity at 0.04 µg/mL (1536 h, day 64 post infection) of 100%, an activity at 0.1 µg/mL (1536 h, day 64 post infection) of 100% and an activity at 0.25 µg/mL (1536 h, day 64 post infection) of 100%. The activity at 0.04 µg/mL (1608 h, day 67 post infection) was 100%, the activity at 0.1 µg/mL (1608 h, day 67 post infection) was 100% and the activity at 0.25 µg/mL (1608 h, day 67 post infection) was 100%. For the same compound, the activity at 0.04 µg/mL (1704 h, day 71 post infection) was 100%, the activity at 0.1 µg/mL (1704 h, day 71 post infection) was 100% and the activity at 0.25 µg/mL (1704 h, day 71 post infection) was 100%. For the same compound, the activity at 0.04 µg/mL (1776 h, day 74 post infection) was 100%, the activity at 0.1 µg/mL (1776 h, day 74 post infection) was 100% and the activity at 0.25 µg/mL (1776 h, day 74 post infection) was 100%. It also gave an activity at 0.04 µg/mL (1848 h, day 77 post infection) of 100%, an activity at 0.1 µg/mL (1848 h, day 77 post infection) of 100% and an activity at 0.25 µg/mL (1848 h, day 77 post infection) of 100%. The “virus breakthrough delayed till day” value (single drug, highest concentration) was 21 days.

Source: patent US5968910A, “Compositions containing two or three inhibitors of different HIV reverse transcriptases” (priority 1994, dated 1999)
